Reference: PubChem BioAssay (NCI)
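Cells were grown in 96-well plates and exposed to each compound for 48 hours at five concentrations; endpoints were interpolated linearly between bracketing concentrations, or set to the highest concentration if not reached. Abbreviation: GI50, concentration required for 50% inhibition of growth. TGI is the concentration that stops growth completely.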

Legend:
Test in all cases: NCI anticancer screen, dose series, 48 h
[1] = tested on: NCI-H226 lung
[2] = tested on: NCI-H23 lung
[3] = tested on: NCI-H460 lung
[4] = tested on: NCI-H522 lung
[5] = tested on: NCI/ADR-RES ovarian
[6] = tested on: OVCAR-3 ovarian
[7] = tested on: OVCAR-4 ovarian
[8] = tested on: OVCAR-5 ovarian
[9] = tested on: OVCAR-8 ovarian
[10] = tested on: PC-3 prostate
[11] = tested on: RPMI-8226 leukemia
[12] = tested on: RXF 393 renal
[13] = tested on: SF-268 CNS
[14] = tested on: SF-295 CNS
[15] = tested on: SF-539 CNS
[16] = tested on: SK-MEL-2 melanoma
[17] = tested on: SK-MEL-28 melanoma
[18] = tested on: SK-MEL-5 melanoma
[19] = tested on: SK-OV-3 ovarian
[20] = tested on: SN12C renal
[21] = tested on: SNB-19 CNS
[22] = tested on: SNB-75 CNS
[23] = tested on: SR leukemia
[24] = tested on: SW-620 colon
[25] = tested on: T-47D breast
[26] = tested on: U251 CNS
[27] = tested on: UACC-257 melanoma
[28] = tested on: UACC-62 melanoma
[29] = tested on: UO-31 renal

Cc1nnc(NC(=O)c2nc(S(=O)(=O)Cc3ccc(F)cc3)ncc2Cl)s1
TGI [1]: 25.7 µM
GI50 [2]: 12.5 µM
TGI [2]: 32.5 µM
GI50 [3]: 17.4 µM
TGI [3]: 35.1 µM
GI50 [4]: 0.729 µM
TGI [4]: 2.46 µM
GI50 [5]: 14.2 µM
TGI [5]: 50.1 µM
GI50 [6]: 1.94 µM
TGI [6]: 3.47 µM
GI50 [7]: 1.8 µM
TGI [7]: 3.8 µM
GI50 [8]: 12.4 µM
TGI [8]: 25.4 µM
GI50 [9]: 2.72 µM
TGI [9]: 7.77 µM
GI50 [10]: 10 µM
TGI [10]: 22.9 µM
GI50 [11]: 2.21 µM
TGI [11]: 12.8 µM
GI50 [12]: 1.85 µM
TGI [12]: 3.51 µM
GI50 [13]: 3.88 µM
TGI [13]: 16.8 µM
GI50 [14]: 15.9 µM
TGI [14]: 30.7 µM
GI50 [15]: 4.27 µM
TGI [15]: 15.4 µM
GI50 [16]: 3.19 µM
TGI [16]: 9.72 µM
GI50 [17]: 1.73 µM
TGI [17]: 3.26 µM
GI50 [18]: 17 µM
TGI [18]: 31.4 µM
GI50 [19]: 17.9 µM
TGI [19]: 32 µM
GI50 [20]: 2.39 µM
TGI [20]: 6.56 µM
GI50 [21]: 15.6 µM
TGI [21]: 35.1 µM
GI50 [22]: 3.25 µM
TGI [22]: 17.6 µM
GI50 [23]: 1.44 µM
TGI [23]: 3.55 µM
GI50 [24]: 1.51 µM
TGI [24]: 3.25 µM
GI50 [25]: 2.45 µM
TGI [25]: 14.1 µM
GI50 [26]: 4.12 µM
TGI [26]: 15.5 µM
GI50 [27]: 2.1 µM
TGI [27]: 7.61 µM
GI50 [28]: 1.61 µM
TGI [28]: 3.01 µM
GI50 [29]: 7.15 µM
TGI [29]: 20.6 µM
